ChEMBL document CHEMBL1201862, “PubChem BioAssay data set” (2004)
Active and inactive are the calls of the source.

What was measured:
[1] = HEp-2 cell cytotoxicity, dose response, cytotoxicity control for RSV inhibitor project, HTS (AID 2410); assay type: functional; details: human respiratory syncytial virus
[2] = microbe, parasite or virus in culture; assay type: functional; details: Mycobacterium tuberculosis
[3] = HeLa cell cytotoxicity, dose response, cytotoxicity control for MgcRacGAP inhibitor project (AID 624300); assay type: functional
[4] = target: T1, Rac GTPase-activating protein 1 (Homo sapiens, UniProt Q9H0H5); assay: MgcRacGAP GTPase-activating activity inhibitors, confirmation, biochemical, ADP Hunter fluorescence, primary and confirmatory (AID 624330); assay type: functional
T1 sequence (Q9H0H5 whole entry): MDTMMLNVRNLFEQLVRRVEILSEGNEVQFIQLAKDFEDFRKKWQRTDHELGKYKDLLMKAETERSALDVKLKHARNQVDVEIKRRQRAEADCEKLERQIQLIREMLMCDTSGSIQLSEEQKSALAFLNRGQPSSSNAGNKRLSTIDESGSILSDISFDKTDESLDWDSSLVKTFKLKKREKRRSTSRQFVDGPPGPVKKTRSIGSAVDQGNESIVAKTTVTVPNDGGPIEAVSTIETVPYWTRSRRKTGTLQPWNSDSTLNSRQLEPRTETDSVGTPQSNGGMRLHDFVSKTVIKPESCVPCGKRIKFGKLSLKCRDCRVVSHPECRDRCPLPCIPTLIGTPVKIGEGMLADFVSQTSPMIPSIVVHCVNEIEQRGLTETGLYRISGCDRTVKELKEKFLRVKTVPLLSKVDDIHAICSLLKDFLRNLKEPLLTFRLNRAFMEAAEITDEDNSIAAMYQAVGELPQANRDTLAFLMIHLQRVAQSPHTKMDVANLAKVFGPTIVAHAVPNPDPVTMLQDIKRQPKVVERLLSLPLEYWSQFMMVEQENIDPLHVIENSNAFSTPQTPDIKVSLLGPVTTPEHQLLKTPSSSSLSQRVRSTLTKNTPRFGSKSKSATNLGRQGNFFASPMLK

[5] = Shn3 3'UTR reporter inhibitors, dose response, cell-based, Clone20 osteoblasts, firefly luciferase, cherry-picked (AID 624132); assay type: functional;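 further: firefly luciferase luminescence from reporter carrying the Shn3 3'UTR in osteoblasts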
[6] = HepG2 cell cytotoxicity, dose response, cytotoxicity control for Shn3 inhibitor project, CellTiter-Glo, cherry-picked (AID 624134); assay type: functional, cell-based
[7] = control 3'UTR Renilla luciferase suppression, dose response, counter-screen for Shn3 inhibitor project, cell-based, Clone20-Shn3RL, cherry-picked (AID 624133); assay type: functional
[8] = inhibitors of HIV Env-driven cell fusion, dose response, cherry-pick (AID 652057); assay type: functional, cell-based
[9] = CEM21 lymphoblast cell cytotoxicity, dose response, cytotoxicity control for viral fusion inhibitor project, CellTiter-Glo luminescence, cherry-picked (AID 652042); assay type: functional, cell-based;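 further: potency for signal decrease meaning cytotoxicity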
[10] = off-target signal loss in HeLa-CEM21 co-culture – HeLa F-luc CTL cells, cherry-picked, counter-screen for HIV-1 Env fusion inhibitor project, dose response (AID 652040); assay type: functional, cell-based;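 further: potency for signal decrease marking cytotoxic or nonspecific inhibition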
[11] = inhibitors of clade B AD8 Env fusion, dose response, cell-based, cherry-pick (AID 652062); assay type: functional;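 further: luciferase signal from cell-cell fusion driven by HIV-1 clade B AD8 Env; potency is for inhibitors of fusion seen as a drop in luminescence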
[12] = target: T2, Replicative DNA helicase DnaB (Mycobacterium tuberculosis, UniProt P9WMR3); assay: DnaB intein splicing inhibitors, dose response, biochemical, cell-free fluorescence (AID 449749); assay type: functional
T2 sequence (P9WMR3 whole entry): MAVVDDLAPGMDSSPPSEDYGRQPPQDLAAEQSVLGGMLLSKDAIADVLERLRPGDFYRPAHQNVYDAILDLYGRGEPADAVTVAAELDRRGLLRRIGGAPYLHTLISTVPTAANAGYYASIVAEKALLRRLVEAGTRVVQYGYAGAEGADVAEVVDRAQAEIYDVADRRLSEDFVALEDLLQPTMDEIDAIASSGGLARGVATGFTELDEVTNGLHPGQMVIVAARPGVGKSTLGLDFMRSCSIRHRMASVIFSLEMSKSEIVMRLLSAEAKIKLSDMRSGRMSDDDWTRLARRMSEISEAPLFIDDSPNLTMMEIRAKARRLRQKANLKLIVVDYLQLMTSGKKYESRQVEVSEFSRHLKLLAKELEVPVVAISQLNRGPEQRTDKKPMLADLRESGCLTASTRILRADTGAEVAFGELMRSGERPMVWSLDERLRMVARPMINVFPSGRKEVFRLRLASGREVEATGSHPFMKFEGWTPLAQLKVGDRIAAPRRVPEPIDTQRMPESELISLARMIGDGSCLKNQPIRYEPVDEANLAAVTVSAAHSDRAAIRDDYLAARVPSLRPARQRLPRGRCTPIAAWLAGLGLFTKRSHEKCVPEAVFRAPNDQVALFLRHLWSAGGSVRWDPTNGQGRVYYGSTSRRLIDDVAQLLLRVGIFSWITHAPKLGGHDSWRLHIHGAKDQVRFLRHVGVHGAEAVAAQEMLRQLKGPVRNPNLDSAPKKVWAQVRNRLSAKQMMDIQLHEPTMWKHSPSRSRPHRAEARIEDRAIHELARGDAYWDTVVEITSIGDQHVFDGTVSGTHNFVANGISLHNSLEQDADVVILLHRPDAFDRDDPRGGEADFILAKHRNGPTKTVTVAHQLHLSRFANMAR

[13] = target: T3, Apoptotic protease-activating factor 1 (Homo sapiens, UniProt O14727); assay type: functional
T3 sequence (O14727 whole entry): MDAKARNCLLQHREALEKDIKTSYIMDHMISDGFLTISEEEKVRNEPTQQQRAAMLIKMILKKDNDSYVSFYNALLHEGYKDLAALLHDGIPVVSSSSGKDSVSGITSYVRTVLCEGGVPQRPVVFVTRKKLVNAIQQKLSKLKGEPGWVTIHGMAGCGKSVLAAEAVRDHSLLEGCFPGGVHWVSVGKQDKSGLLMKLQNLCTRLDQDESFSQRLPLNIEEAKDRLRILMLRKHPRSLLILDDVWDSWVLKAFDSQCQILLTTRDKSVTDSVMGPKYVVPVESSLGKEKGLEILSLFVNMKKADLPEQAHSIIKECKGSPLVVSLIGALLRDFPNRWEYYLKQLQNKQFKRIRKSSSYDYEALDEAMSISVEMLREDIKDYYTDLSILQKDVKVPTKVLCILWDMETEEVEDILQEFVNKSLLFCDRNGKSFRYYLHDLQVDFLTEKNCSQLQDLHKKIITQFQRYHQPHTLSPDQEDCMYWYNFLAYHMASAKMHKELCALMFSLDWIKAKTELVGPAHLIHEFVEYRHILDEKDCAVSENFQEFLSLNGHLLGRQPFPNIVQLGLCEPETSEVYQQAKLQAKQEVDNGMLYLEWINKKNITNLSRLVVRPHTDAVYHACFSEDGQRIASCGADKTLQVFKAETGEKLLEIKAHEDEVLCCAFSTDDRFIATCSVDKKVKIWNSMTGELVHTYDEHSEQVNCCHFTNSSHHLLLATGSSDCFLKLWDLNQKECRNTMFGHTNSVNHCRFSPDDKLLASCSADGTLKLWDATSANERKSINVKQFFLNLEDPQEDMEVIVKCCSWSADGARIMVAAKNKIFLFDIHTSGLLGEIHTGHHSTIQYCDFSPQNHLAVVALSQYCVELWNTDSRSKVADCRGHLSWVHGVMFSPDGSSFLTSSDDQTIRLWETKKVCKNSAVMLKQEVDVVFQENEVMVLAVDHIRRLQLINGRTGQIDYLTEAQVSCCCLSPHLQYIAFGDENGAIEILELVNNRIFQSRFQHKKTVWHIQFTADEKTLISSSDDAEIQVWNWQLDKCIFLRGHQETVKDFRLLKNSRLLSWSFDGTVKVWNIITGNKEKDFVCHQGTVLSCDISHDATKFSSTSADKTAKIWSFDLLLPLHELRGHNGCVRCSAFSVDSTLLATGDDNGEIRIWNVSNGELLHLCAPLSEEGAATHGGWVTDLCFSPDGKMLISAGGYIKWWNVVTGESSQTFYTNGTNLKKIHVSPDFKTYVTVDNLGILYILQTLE

[14] = target: T4, Protein RecA (Mycobacterium tuberculosis, UniProt P9WHJ3); assay: Fluorescence Cell-Free Homogeneous Dose Retest to Identify Inhibitors of RecA-Intein Splicing Activity. [Related pubchem assays (depositor defined):AID2097, AID2223, AID489010, AID492950]; assay type: functional
T4 sequence (P9WHJ3 whole entry): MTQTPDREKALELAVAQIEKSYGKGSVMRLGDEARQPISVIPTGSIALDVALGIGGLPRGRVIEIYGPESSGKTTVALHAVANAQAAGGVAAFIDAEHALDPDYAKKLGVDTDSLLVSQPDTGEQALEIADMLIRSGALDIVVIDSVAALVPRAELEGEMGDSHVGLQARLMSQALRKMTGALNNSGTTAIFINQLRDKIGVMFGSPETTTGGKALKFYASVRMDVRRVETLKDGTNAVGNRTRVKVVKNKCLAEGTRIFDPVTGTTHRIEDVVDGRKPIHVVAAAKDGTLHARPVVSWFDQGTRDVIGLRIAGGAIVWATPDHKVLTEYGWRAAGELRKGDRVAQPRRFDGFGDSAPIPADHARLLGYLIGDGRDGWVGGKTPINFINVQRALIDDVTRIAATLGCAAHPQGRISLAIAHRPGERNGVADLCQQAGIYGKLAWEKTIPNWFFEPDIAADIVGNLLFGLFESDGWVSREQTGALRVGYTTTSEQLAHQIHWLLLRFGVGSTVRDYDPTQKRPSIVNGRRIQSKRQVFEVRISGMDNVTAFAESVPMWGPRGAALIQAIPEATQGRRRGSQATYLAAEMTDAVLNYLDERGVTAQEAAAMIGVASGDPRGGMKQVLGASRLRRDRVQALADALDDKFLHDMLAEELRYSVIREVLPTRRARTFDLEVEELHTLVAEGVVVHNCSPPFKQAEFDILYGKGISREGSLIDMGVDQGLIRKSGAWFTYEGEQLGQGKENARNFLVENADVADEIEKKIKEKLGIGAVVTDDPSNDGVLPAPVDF

[15] = target: Genome polyprotein (dengue virus type 2, UniProt P29990); assay: Dengue-2 NS5 methyltransferase inhibitors, primary screen, biochemical, confirmation dose response (AID 588689); assay type: functional
[16] = target: T5, Sentrin-specific protease 8 (Homo sapiens, UniProt Q96LD8); assay type: functional
T5 sequence (Q96LD8 whole entry): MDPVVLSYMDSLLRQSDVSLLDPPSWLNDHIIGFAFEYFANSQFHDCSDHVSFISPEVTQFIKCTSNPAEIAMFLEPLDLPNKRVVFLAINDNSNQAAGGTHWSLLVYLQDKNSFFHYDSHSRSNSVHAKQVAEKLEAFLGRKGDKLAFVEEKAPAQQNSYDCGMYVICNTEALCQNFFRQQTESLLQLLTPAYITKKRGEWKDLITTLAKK

[17] = target: T5, Sentrin-specific protease 8; assay type: functional; remark: listed apart in the source
[18] = miR-122 activators in hepatoma reporter cells, dose response, cell-based, Huh7 psiCHECK-miR122, Renilla luciferase, cherry-picked (AID 651956); assay type: functional;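 further: huh7 hepatoma cells stably carrying a psiCHECK-2 miR-122 sensor plasmid; renilla luciferase signal reporting endogenous miR-122 activity after 48 h compound exposure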
[19] = target: Mu-type opioid receptor (Homo sapiens, UniProt P35372); assay type: functional, cell-based;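 further: U2OS cells with beta-arrestin recruitment to OPRM1 by beta-gal complementation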
[20] = target: 5-hydroxytryptamine receptor 2A (Mus musculus, UniProt P35363); assay type: functional, cell-based;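 further: CHO-K1 cells with tagged receptor and beta-arrestin; agonist potency measured as compound-induced activation of the receptor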
5-hydroxytryptamine receptor 2A, sequence (P35363 whole entry): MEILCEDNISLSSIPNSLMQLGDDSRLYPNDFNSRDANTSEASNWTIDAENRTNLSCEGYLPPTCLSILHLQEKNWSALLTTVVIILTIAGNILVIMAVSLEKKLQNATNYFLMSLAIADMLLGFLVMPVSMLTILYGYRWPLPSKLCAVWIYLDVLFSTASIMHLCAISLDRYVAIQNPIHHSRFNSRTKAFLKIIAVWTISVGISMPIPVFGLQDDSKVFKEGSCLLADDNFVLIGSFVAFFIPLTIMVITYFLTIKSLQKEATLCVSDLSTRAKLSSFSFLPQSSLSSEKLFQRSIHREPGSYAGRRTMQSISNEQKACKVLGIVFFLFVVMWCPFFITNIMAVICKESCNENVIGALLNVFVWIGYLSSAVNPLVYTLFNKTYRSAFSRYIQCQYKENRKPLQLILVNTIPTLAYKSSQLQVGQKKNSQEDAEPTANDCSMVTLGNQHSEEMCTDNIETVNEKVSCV

Mu-type opioid receptor, sequence (P35372 whole entry): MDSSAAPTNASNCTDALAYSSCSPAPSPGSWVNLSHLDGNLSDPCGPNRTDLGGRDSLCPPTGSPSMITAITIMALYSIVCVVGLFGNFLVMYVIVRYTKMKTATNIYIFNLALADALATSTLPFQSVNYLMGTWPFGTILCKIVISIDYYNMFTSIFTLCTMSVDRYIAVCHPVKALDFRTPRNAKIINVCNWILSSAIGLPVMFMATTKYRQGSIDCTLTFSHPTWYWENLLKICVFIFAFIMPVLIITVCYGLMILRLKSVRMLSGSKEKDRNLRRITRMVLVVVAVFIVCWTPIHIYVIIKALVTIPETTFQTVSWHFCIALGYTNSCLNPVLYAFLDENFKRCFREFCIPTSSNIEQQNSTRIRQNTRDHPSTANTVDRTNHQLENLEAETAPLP
Genome polyprotein, sequence (P29990 2492-3391 limits assumed): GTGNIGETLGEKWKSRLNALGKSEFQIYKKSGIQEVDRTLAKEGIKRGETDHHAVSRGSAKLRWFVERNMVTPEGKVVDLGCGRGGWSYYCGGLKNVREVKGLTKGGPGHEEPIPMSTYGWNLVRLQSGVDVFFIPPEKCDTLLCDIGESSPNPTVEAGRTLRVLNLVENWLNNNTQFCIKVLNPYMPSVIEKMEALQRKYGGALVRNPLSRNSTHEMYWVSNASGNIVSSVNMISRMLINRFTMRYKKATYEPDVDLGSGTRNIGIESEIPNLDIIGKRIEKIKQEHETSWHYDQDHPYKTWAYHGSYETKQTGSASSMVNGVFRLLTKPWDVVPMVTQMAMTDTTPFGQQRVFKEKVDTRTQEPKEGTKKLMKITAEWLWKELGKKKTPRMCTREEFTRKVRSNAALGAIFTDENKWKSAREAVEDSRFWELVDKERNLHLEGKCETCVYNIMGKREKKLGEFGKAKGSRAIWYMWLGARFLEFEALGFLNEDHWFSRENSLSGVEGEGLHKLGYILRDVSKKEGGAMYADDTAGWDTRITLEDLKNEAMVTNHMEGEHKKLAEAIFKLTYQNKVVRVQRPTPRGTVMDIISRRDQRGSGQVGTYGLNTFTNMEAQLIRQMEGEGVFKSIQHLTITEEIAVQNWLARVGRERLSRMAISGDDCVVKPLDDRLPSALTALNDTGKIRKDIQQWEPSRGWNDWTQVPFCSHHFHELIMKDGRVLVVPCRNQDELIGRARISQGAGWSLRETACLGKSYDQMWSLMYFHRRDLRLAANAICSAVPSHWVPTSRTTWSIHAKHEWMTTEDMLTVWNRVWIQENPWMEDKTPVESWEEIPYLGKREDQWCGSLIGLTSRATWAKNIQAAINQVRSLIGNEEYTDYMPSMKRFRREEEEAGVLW

## CCN(CCNCC(O)COc1ccccc1C(C)C)c1cccc(C)c1 (stereo not given)
[1]
  CC50: 20 µM (active)
[2]
  CC50: 14.2 µM (active)
[3]
  CC50: 36.1 µM (active)
[4]
  IC50: 66.7 µM (active)

## FC(F)(F)c1nc(-c2cccs2)ncc1-c1nnnn1-c1ccc(Cl)cc1
[5]
  AC50: 2.1 µM (active)
[6]
  AC50: 29.1 µM (active)
[7]
  AC50: 1.9 µM (active)
[8]
  AC50: 42.6 µM (active)
[9]
  AC50: 23 µM (active)
[10]
  AC50: 29 µM (active)
[11]
  AC50: 2.87 µM (active)

## Cc1n[nH]c(O)c1C(c1ccc(-c2cccc(Cl)c2)o1)c1c(C)n[nH]c1O
[12]
  AC50: > 380 µM (inactive)
[13]
  IC50: 17.4 µM (active)
[14]
  EC50: 66.2 µM (active)
[15]
  IC50: 56.5 µM (active)
[16]
  IC50: 2.19 µM (active)
[17]
  IC50: 3.19 µM (active)

## COc1ccc(N2CCN(C(=O)CSc3nnc(CNc4ccccc4)o3)CC2)cc1
[18]
  AC50: 44.3 µM (active)

## C=CCN1CCc2c(cc(O)c(O)c2Br)[C@@H](c2ccccc2)C1
[19]
  EC50: 92.5 µM (inactive)
[20]
  EC50: 0.0982 µM (active)

## O=C1NC[C@H](Cc2ccccc2)N(C[C@H]2CCCN2C[C@H](Cc2ccc(O)cc2)N2C[C@H](Cc3ccc(O)cc3)N(CC3CCCCCC3)C(=O)C2=O)C1=O
[19]
  EC50: 92.5 µM (inactive)
[20]
  EC50: 4.46 µM (active)

## c1nc2nc[nH]c(N3CCN(Cc4ccc5c(c4)OCO5)CC3)c-2n1
[19]
  EC50: 92.5 µM (inactive)
[20]
  EC50: 0.59 µM (active)

## Cc1nn(C)cc1NC(=O)C[C@@H]1CC[C@@H]2[C@@H](COc3ccc(NC(=O)Nc4cccc(Cl)c4)cc3C(=O)N2C)O1
[18]
  AC50: 22.8 µM (active)
